{"source": "ChEMBL document CHEMBL1145534", "about": "(2007)", "format_in_all_cases": "functional", "key": {"Streptococcus sanguinis [1]": {"system": "Streptococcus sanguinis", "experiment": "Antimicrobial activity against viridans group Streptococcus sanguinis at 0.5 ug/ml by broth microdilution method"}, "Corynebacterium jeikeium": {"system": "Corynebacterium jeikeium", "experiment": "Antimicrobial activity against Corynebacterium jeikeium at 0.5 ug/ml by broth microdilution method"}, "Micrococcus luteus [2]": {"system": "Micrococcus luteus", "experiment": "Antimicrobial activity against Micrococcus luteus by broth microdilution method"}, "Streptococcus anginosus [3]": {"system": "Streptococcus anginosus", "experiment": "Antimicrobial activity against viridans group Streptococcus anginosus at <= 0.06 ug/ml by broth microdilution method"}, "Streptococcus [4]": {"system": "Streptococcus", "experiment": "Antimicrobial activity against beta hemolytic Streptococci group G at 0.5 ug/ml by broth microdilution method"}, "Streptococcus mutans": {"system": "Streptococcus mutans", "experiment": "Antimicrobial activity against viridans group Streptococcus mutans at 0.25 ug/ml by broth microdilution method"}, "Enterococcus raffinosus [5]": {"system": "Enterococcus raffinosus", "experiment": "Antimicrobial activity against Enterococcus raffinosus at 2 ug/ml by broth microdilution method"}, "Enterococcus hirae": {"system": "Enterococcus hirae", "experiment": "Antimicrobial activity against Enterococcus hirae at 0.12 ug/ml by broth microdilution method"}, "[6]": {"system": "Streptococcus constellatus", "experiment": "Antimicrobial activity against viridans group Streptococcus constellatus at 1 ug/ml by broth microdilution method"}, "Aerococcus [7]": {"system": "Aerococcus", "experiment": "Antimicrobial activity against Aerococcus spp. at 0.5 ug/ml by broth microdilution method"}, "Streptococcus anginosus [8]": {"system": "Streptococcus anginosus", "experiment": "Antimicrobial activity against viridans group Streptococcus anginosus at 0.25 ug/ml by broth microdilution method"}, "Bacillus cereus": {"system": "Bacillus cereus", "experiment": "Antimicrobial activity against Bacillus cereus at 1 ug/ml by broth microdilution method"}, "Streptococcus anginosus [9]": {"system": "Streptococcus anginosus", "experiment": "Antimicrobial activity against viridans group Streptococcus anginosus at 0.12 ug/ml by broth microdilution method"}, "Streptococcus equinus": {"system": "Streptococcus equinus", "experiment": "Antimicrobial activity against viridans group Streptococcus bovis at <= 0.06 ug/ml by broth microdilution method"}, "Streptococcus oralis [10]": {"system": "Streptococcus oralis", "experiment": "Antimicrobial activity against viridans group Streptococcus oralis at 1 ug/ml by broth microdilution method"}, "Streptococcus [11]": {"system": "Streptococcus", "experiment": "Antimicrobial activity against beta hemolytic Streptococcus group C at 0.5 ug/ml by broth microdilution method"}, "Aerococcus [12]": {"system": "Aerococcus", "experiment": "Antimicrobial activity against Aerococcus spp. at 1 ug/ml by broth microdilution method"}, "Streptococcus gordonii [13]": {"system": "Streptococcus gordonii", "experiment": "Antimicrobial activity against viridans group Streptococcus gordonii at 0.12 ug/ml by broth microdilution method"}, "Streptococcus mitis": {"system": "Streptococcus mitis", "experiment": "Antimicrobial activity against viridans group Streptococcus mitis by broth microdilution method"}, "Streptococcus sanguinis [14]": {"system": "Streptococcus sanguinis", "experiment": "Antimicrobial activity against viridans group Streptococcus sanguinis at 1 ug/ml by broth microdilution method"}, "Streptococcus gordonii [15]": {"system": "Streptococcus gordonii", "experiment": "Antimicrobial activity against viridans group Streptococcus gordonii at 1 ug/ml by broth microdilution method"}, "Enterococcus gallinarum [16]": {"system": "Enterococcus gallinarum", "experiment": "Antimicrobial activity against Enterococcus gallinarum at 2 ug/ml by broth microdilution method"}, "Enterococcus durans": {"system": "Enterococcus durans", "experiment": "Antimicrobial activity against Enterococcus durans at 1 ug/ml by broth microdilution method"}, "[17]": {"system": "Corynebacterium pseudodiphtheriticum", "experiment": "Antimicrobial activity against Corynebacterium pseudodiphtheriticum at 1 ug/ml by broth microdilution method"}, "Streptococcus salivarius": {"system": "Streptococcus salivarius", "experiment": "Antimicrobial activity against viridans group Streptococcus salivarius at 0.5 ug/ml by broth microdilution method"}, "Listeria monocytogenes [18]": {"system": "Listeria monocytogenes", "experiment": "Antimicrobial activity against Listeria monocytogenes at 0.25 ug/ml by broth microdilution method"}, "Enterococcus avium": {"system": "Enterococcus avium", "experiment": "Antimicrobial activity against Enterococcus avium at 1 ug/ml by broth microdilution method"}, "[19]": {"system": "Corynebacterium amycolatum", "experiment": "Antimicrobial activity against Corynebacterium amycolatum at 0.25 ug/ml by broth microdilution method"}, "Listeria monocytogenes [20]": {"system": "Listeria monocytogenes", "experiment": "Antimicrobial activity against Listeria monocytogenes at 1 ug/ml by broth microdilution method"}, "[21]": {"system": "Streptococcus parasanguinis", "experiment": "Antimicrobial activity against viridans group Streptococcus parasanguis at 0.25 ug/ml by broth microdilution method"}, "Streptococcus oralis [22]": {"system": "Streptococcus oralis", "experiment": "Antimicrobial activity against viridans group Streptococcus oralis at <= 0.06 ug/ml by broth microdilution method"}, "Enterococcus gallinarum [23]": {"system": "Enterococcus gallinarum", "experiment": "Antimicrobial activity against Enterococcus gallinarum at 0.25 ug/ml by broth microdilution method"}, "Streptococcus sanguinis [24]": {"system": "Streptococcus sanguinis", "experiment": "Antimicrobial activity against viridans group Streptococcus sanguinis at 0.25 ug/ml by broth microdilution method"}, "Micrococcus luteus [25]": {"system": "Micrococcus luteus", "experiment": "Antimicrobial activity against Micrococcus luteus at 0.12 ug/ml by broth microdilution method"}, "Enterococcus raffinosus [26]": {"system": "Enterococcus raffinosus", "experiment": "Antimicrobial activity against Enterococcus raffinosus by broth microdilution method"}, "[27]": {"system": "Streptococcus intermedius", "experiment": "Antimicrobial activity against viridans group Streptococcus intermedius at 0.25 ug/ml by broth microdilution method"}}, "data": [{"compound": "CC(=O)NC[C@H]1CN(c2ccc(N3CCOCC3)c(F)c2)C(=O)O1", "note": "[LINEZOLID]", "values": [{"measurement": "inhibition at 0.5 µg/mL", "setting": "Streptococcus sanguinis [1]", "value": 36.6, "unit": "%"}, {"measurement": "inhibition at 0.5 µg/mL", "setting": "Corynebacterium jeikeium", "value": 98.3, "unit": "%"}, {"measurement": "MIC50", "setting": "Micrococcus luteus [2]", "value": 0.5, "unit": "µg/mL"}, {"measurement": "MIC90", "setting": "Micrococcus luteus [2]", "value": 1, "unit": "µg/mL"}, {"measurement": "Inhibition", "setting": "Streptococcus anginosus [3]", "value": 2.9, "unit": "%"}, {"measurement": "inhibition at 0.5 µg/mL", "setting": "Streptococcus [4]", "value": 8.2, "unit": "%"}, {"measurement": "inhibition at 0.25 µg/mL", "setting": "Streptococcus mutans", "value": 0, "unit": "%"}, {"measurement": "inhibition at 2 µg/mL", "setting": "Enterococcus raffinosus [5]", "value": 100, "unit": "%"}, {"measurement": "inhibition at 0.12 µg/mL", "setting": "Enterococcus hirae", "value": 0, "unit": "%"}, {"measurement": "inhibition at 1 µg/mL", "setting": "[6]", "value": 98.9, "unit": "%"}, {"measurement": "inhibition at 0.5 µg/mL", "setting": "Aerococcus [7]", "value": 31.8, "unit": "%"}, {"measurement": "inhibition at 0.25 µg/mL", "setting": "Streptococcus anginosus [8]", "value": 7.7, "unit": "%"}, {"measurement": "inhibition at 1 µg/mL", "setting": "Bacillus cereus", "value": 98.3, "unit": "%"}, {"measurement": "inhibition at 0.12 µg/mL", "setting": "Streptococcus anginosus [9]", "value": 2.9, "unit": "%"}, {"measurement": "Inhibition", "setting": "Streptococcus equinus", "value": 0, "unit": "%"}, {"measurement": "inhibition at 1 µg/mL", "setting": "Streptococcus oralis [10]", "value": 96.4, "unit": "%"}, {"measurement": "inhibition at 0.5 µg/mL", "setting": "Streptococcus [11]", "value": 16.6, "unit": "%"}, {"measurement": "inhibition at 1 µg/mL", "setting": "Aerococcus [12]", "value": 63.6, "unit": "%"}, {"measurement": "inhibition at 0.12 µg/mL", "setting": "Streptococcus gordonii [13]", "value": 0, "unit": "%"}, {"measurement": "MIC50", "setting": "Streptococcus mitis", "value": 1, "unit": "µg/mL"}, {"measurement": "MIC90", "setting": "Streptococcus mitis", "value": 1, "unit": "µg/mL"}, {"measurement": "inhibition at 1 µg/mL", "setting": "Streptococcus sanguinis [14]", "value": 97.9, "unit": "%"}, {"measurement": "inhibition at 1 µg/mL", "setting": "Streptococcus gordonii [15]", "value": 100, "unit": "%"}, {"measurement": "inhibition at 2 µg/mL", "setting": "Enterococcus gallinarum [16]", "value": 99.2, "unit": "%"}, {"measurement": "inhibition at 1 µg/mL", "setting": "Enterococcus durans", "value": 32.7, "unit": "%"}, {"measurement": "inhibition at 1 µg/mL", "setting": "[17]", "value": 100, "unit": "%"}, {"measurement": "inhibition at 0.5 µg/mL", "setting": "Streptococcus salivarius", "value": 46.2, "unit": "%"}, {"measurement": "inhibition at 0.25 µg/mL", "setting": "Listeria monocytogenes [18]", "value": 0, "unit": "%"}, {"measurement": "inhibition at 1 µg/mL", "setting": "Enterococcus avium", "value": 52.6, "unit": "%"}, {"measurement": "inhibition at 0.25 µg/mL", "setting": "[19]", "value": 100, "unit": "%"}, {"measurement": "inhibition at 1 µg/mL", "setting": "Listeria monocytogenes [20]", "value": 29.2, "unit": "%"}, {"measurement": "inhibition at 0.25 µg/mL", "setting": "[21]", "value": 0, "unit": "%"}, {"measurement": "Inhibition", "setting": "Streptococcus oralis [22]", "value": 0.7, "unit": "%"}, {"measurement": "inhibition at 0.25 µg/mL", "setting": "Enterococcus gallinarum [23]", "value": 0, "unit": "%"}, {"measurement": "inhibition at 0.25 µg/mL", "setting": "Streptococcus sanguinis [24]", "value": 4.2, "unit": "%"}, {"measurement": "inhibition at 0.12 µg/mL", "setting": "Micrococcus luteus [25]", "value": 0, "unit": "%"}, {"measurement": "MIC50", "setting": "Enterococcus raffinosus [26]", "value": 2, "unit": "µg/mL"}, {"measurement": "MIC90", "setting": "Enterococcus raffinosus [26]", "value": 2, "unit": "µg/mL"}, {"measurement": "inhibition at 0.25 µg/mL", "setting": "[27]", "value": 0, "unit": "%"}]}]}
